# Source: patent publication US20230085578A1, “SYSTEMS AND METHODS FOR TRIPLE-PARAMETRIC OPTICAL MAPPING” (The George Washington University, priority 2021, published 2023)
# Read-outs that look alike come from different tables or passages of the source.
# System: mouse hearts
# Assay: Triple parametric optical mapping (Vm, Ca2+, NADH) of Langendorff-perfused mouse hearts during drug treatment
# Design: Effect on contractions of the heart (electromechanical uncoupling): dose or concentration left out as unconfirmed
# Conditions: for APD80 (action potential duration) / AR (anisotropic ratio, CVL to CVT) / CVL (longitudinal conduction velocity) / CVT (transverse conduction velocity) / Ca2+ RT (rise time) / Ca t (calcium decay time constant) / CaTD80 (calcium transient duration) / NADH fluorescence intensity (normalized to first recording of the heart) / Vm RT (rise time) / Vm-Ca2+ delay: Blebbistatin 15 μM, Verapamil 1 μM, mean±SEM
# Description: Langendorff perfusion: Adult male and female mice on C57BL/6 background were used in this study. Mice were anesthetized by isoflurane inhalation and cervical dislocation was performed. Hearts were quickly excised following thoracotomy and the aorta was cannulated. The heart was attached to a Langendorff perfusion system, hung in a vertical position in a temperature-controlled bath and perfused with a modified Tyrode's solution containing (in mM) 130 NaCl, 24 NaHCO3, 1.2 NaH2PO4, 1 MgCl2, 5.6 Glucose, 4 KCl, 1.8 CaCl2, pH 7.40 and bubbled with carbogen (95% 02 and 5% CO2) at 37° C. Perfusion pressure was maintained at ˜80 mmHg by adjusting the flow rate between 1 and 1.5 ml/min. A platinum bipolar electrode was placed at the center of the anterior surface residing the middle of the field of view. Gentle pressure was applied to the back of the heart as it was pushed up to the front optical glass of the bath using a paddle, allowing the pacing electrode to be held in place. Electrical stimuli were applied to determine the threshold of pacing. Hearts were paced at 1.5× pacing threshold amplitude and 2 ms stimulus duration, only during optical recording. Hearts were paced at varying rates as listed in the figures to determine the restitution properties of the heart under each condition.
# Optical Mapping: The heart was subjected to a 10 min equilibration period followed by staining with the voltage- and calcium-sensitive dyes. A 1 ml mixture of RH237 ([…] Tyrode's solution, Biotium 61018) was prepared and immediately injected into the dye port above the cannula over a 3-5 min period. This was followed by a 5 min washout period. Similarly, a 1 ml mixture of Rhod2-AM (30 ul of 1 mg/ml dye stock solution+[…] Tyrode's solution, Thermo Fisher Scientific R1244 and Biotium 59005, respectively) was prepared and immediately injected into the dye port over a 3-5 min period. This was followed by 5 min dye washout period.
# The heart was then illuminated by two LED excitation light sources at 365 nm and 520±5 nm wavelengths. While the former induces autofluorescence of NADH in the tissue, the latter excites both RH237 and Rhod2-AM dyes. Control optical recordings of NADH, Vm, and Ca^2+ were simultaneously acquired at 1 kHz sampling rate. NADH, Vm, and Ca^2+ are indicative of […].
# […] […] Optical recordings were once again acquired for each of these conditions as described above.
# Data Analysis: Optical data of NADH, transmembrane potential and calcium were analyzed using a custom Matlab software, Rhythm 3.0, which is available in an open-source format on Github. Rhythm 3.0 which is an upgraded version of Rhythm 1.2, incorporates NADH visualization and analysis features as well as the ability to calculate delay in transmembrane potential to intracellular calcium activation (Vm-Ca^2+ Delay). Rhythm software was written to analyze data formats generated by SciMedia systems but can be modified to analyze other data formats.
# Ten different parameters were measured from the 3 optical signals that were simultaneously recorded under each condition using the Rhythm 3.0 software to determine MECC. The ten parameters include, from transmembrane potential: (1) rise time (Vm RT), (2) action potential duration (APD80), (3) transverse and (4) longitudinal conduction velocity (CVT and CVL) and (5) anisotropic ratio (AR), from intracellular calcium: (6) rise time (Ca^2+ RT), (7) calcium transient duration (CaTD80), (8) calcium decay time constant (t), (9) Vm-Ca^2+ delay and (10) NADH fluorescence intensity.
smiles,measurement,setting,value
"Nc1ccncc1 [4-AP, 4-aminopyridine]",BCL at which pacing of the hearts was prevented (no 1:1 capture),4-AP 7 mM in presence of blebbistatin,< 125 ms
same,Change in CVT (in words),"150 ms BCL, 4-AP 7 mM vs blebbistatin",slowed
same,Change in Ca2+ RT (in words),"150 ms BCL, blebbistatin vs Control, 4-AP 7 mM vs blebbistatin",prolonged
same,APD80 (action potential duration),"BCL 125, 4-AP 7 mM",69.09 ± 7.52
same,"AR (anisotropic ratio, CVL to CVT)","BCL 125, 4-AP 7 mM",1.80 ± 0.19
same,CVL (longitudinal conduction velocity),"BCL 125, 4-AP 7 mM",0.47 ± 0.07
same,CVT (transverse conduction velocity),"BCL 125, 4-AP 7 mM",0.27 ± 0.05
same,Ca2+ RT (rise time),"BCL 125, 4-AP 7 mM",6.82 ± 1.39
same,Ca t (calcium decay time constant),"BCL 125, 4-AP 7 mM",27.106 ± 6.26
same,CaTD80 (calcium transient duration),"BCL 125, 4-AP 7 mM",79.32 ± 2.28
same,NADH fluorescence intensity (normalized to first recording of the heart),"BCL 125, 4-AP 7 mM",0.98 ± 0.07
same,Vm RT (rise time),"BCL 125, 4-AP 7 mM",5.15 ± 0.29
same,Vm-Ca2+ delay,"BCL 125, 4-AP 7 mM",−1.88 ± 1.79
same,APD80 (action potential duration),"BCL 150, 4-AP 7 mM",78.13 ± 3.52
same,"AR (anisotropic ratio, CVL to CVT)","BCL 150, 4-AP 7 mM",1.90 ± 0.45
same,CVL (longitudinal conduction velocity),"BCL 150, 4-AP 7 mM",0.53 ± 0.09
same,CVT (transverse conduction velocity),"BCL 150, 4-AP 7 mM",0.28 ± 0.05
same,Ca2+ RT (rise time),"BCL 150, 4-AP 7 mM",7.05 ± 1.03
same,Ca t (calcium decay time constant),"BCL 150, 4-AP 7 mM",30.94 ± 5.51
same,CaTD80 (calcium transient duration),"BCL 150, 4-AP 7 mM",88.37 ± 6.37
same,NADH fluorescence intensity (normalized to first recording of the heart),"BCL 150, 4-AP 7 mM",0.97 ± 0.06
same,Vm RT (rise time),"BCL 150, 4-AP 7 mM",4.94 ± 0.63
same,Vm-Ca2+ delay,"BCL 150, 4-AP 7 mM",−1.71 ± 2.13
same,APD80 (action potential duration),"BCL 200, 4-AP 7 mM",84.56 ± 6.68
same,"AR (anisotropic ratio, CVL to CVT)","BCL 200, 4-AP 7 mM",1.97 ± 0.37
same,CVL (longitudinal conduction velocity),"BCL 200, 4-AP 7 mM",0.66 ± 0.06
same,CVT (transverse conduction velocity),"BCL 200, 4-AP 7 mM",0.32 ± 0.05
same,Ca2+ RT (rise time),"BCL 200, 4-AP 7 mM",7.04 ± 1.57
same,Ca t (calcium decay time constant),"BCL 200, 4-AP 7 mM",37.11 ± 11.58
same,CaTD80 (calcium transient duration),"BCL 200, 4-AP 7 mM",96.41 ± 8.18
same,NADH fluorescence intensity (normalized to first recording of the heart),"BCL 200, 4-AP 7 mM",0.97 ± 0.07
same,Vm RT (rise time),"BCL 200, 4-AP 7 mM",4.79 ± 0.23
same,Vm-Ca2+ delay,"BCL 200, 4-AP 7 mM",−1.48 ± 1.38
same,Change in APD80 (in words),"all tested pacing rates, vs blebbistatin",prolonged
"Cc1ccc2c(c1)C(=O)C1(O)CCN(c3ccccc3)C1=N2 (centres unmarked) [Blebbistatin, blebbistatin]",Change in CVT (in words),,faster
same,Change in Ca2+ RT (in words),,increased
same,Change in NADH intensity (in words),,reduced
same,Number of the 10 measured parameters altered,,2
same,Effect on contractions of the heart (electromechanical uncoupling),blebbistatin,abolished contractions
"COc1ccc(CCN(C)CCCC(C#N)(c2ccc(OC)c(OC)c2)C(C)C)cc1OC (centres unmarked) [Verapamil, verapamil]",APD80 (action potential duration),BCL 80,31.06 ± 0.00
same,CVL (longitudinal conduction velocity),BCL 80,0.28 ± 0.00
same,CVT (transverse conduction velocity),BCL 80,0.21 ± 0.00
same,Ca2+ RT (rise time),BCL 80,8.09 ± 0.00
same,Ca t (calcium decay time constant),BCL 80,13.71 ± 0.00
same,CaTD80 (calcium transient duration),BCL 80,60.74 ± 0.00
same,NADH fluorescence intensity (normalized to first recording of the heart),BCL 80,1.04 ± 0.00
same,Vm-Ca2+ delay,BCL 80,−2.81 ± 0.00
same,APD80 (action potential duration),BCL 90,44.72 ± 9.21
same,CVL (longitudinal conduction velocity),BCL 90,0.35 ± 0.03
same,CVT (transverse conduction velocity),BCL 90,0.18 ± 0.04
same,Ca2+ RT (rise time),BCL 90,8.16 ± 1.36
same,Ca t (calcium decay time constant),BCL 90,17.15 ± 1.92
same,CaTD80 (calcium transient duration),BCL 90,63.46 ± 2.71
same,NADH fluorescence intensity (normalized to first recording of the heart),BCL 90,0.98 ± 0.07
same,Vm RT (rise time),BCL 90,4.65 ± 0.10
same,Vm-Ca2+ delay,BCL 90,−6.07 ± 2.54
same,APD80 (action potential duration),BCL 100,45.75 ± 10.51
same,CVL (longitudinal conduction velocity),BCL 100,0.60 ± 0.02
same,CVT (transverse conduction velocity),BCL 100,0.23 ± 0.03
same,Ca2+ RT (rise time),BCL 100,9.54 ± 0.43
same,Ca t (calcium decay time constant),BCL 100,20.41 ± 3.36
same,CaTD80 (calcium transient duration),BCL 100,69.61 ± 3.02
same,NADH fluorescence intensity (normalized to first recording of the heart),BCL 100,0.99 ± 0.08
same,Vm RT (rise time),BCL 100,4.70 ± 0.39
same,Vm-Ca2+ delay,BCL 100,−5.22 ± 1.73
same,APD80 (action potential duration),"BCL 125, 4-AP 7 mM",49.46 ± 6.20
same,CVL (longitudinal conduction velocity),"BCL 125, 4-AP 7 mM",0.59 ± 0.03
same,CVT (transverse conduction velocity),"BCL 125, 4-AP 7 mM",0.28 ± 0.03
same,Ca2+ RT (rise time),"BCL 125, 4-AP 7 mM",8.28 ± 0.96
same,Ca t (calcium decay time constant),"BCL 125, 4-AP 7 mM",32.14 ± 11.32
same,CaTD80 (calcium transient duration),"BCL 125, 4-AP 7 mM",77.16 ± 7.51
same,NADH fluorescence intensity (normalized to first recording of the heart),"BCL 125, 4-AP 7 mM",0.99 ± 0.08
same,Vm RT (rise time),"BCL 125, 4-AP 7 mM",4.57 ± 0.25
same,Vm-Ca2+ delay,"BCL 125, 4-AP 7 mM",−7.06 ± 4.13
same,APD80 (action potential duration),"BCL 150, 4-AP 7 mM",54.39 ± 11.88
same,CVL (longitudinal conduction velocity),"BCL 150, 4-AP 7 mM",0.67 ± 0.02
same,CVT (transverse conduction velocity),"BCL 150, 4-AP 7 mM",0.29 ± 0.01
same,Ca2+ RT (rise time),"BCL 150, 4-AP 7 mM",9.31 ± 0.93
same,Ca t (calcium decay time constant),"BCL 150, 4-AP 7 mM",32.38 ± 4.88
same,CaTD80 (calcium transient duration),"BCL 150, 4-AP 7 mM",89.183 ± 11.79
same,NADH fluorescence intensity (normalized to first recording of the heart),"BCL 150, 4-AP 7 mM",0.99 ± 0.08
same,Vm RT (rise time),"BCL 150, 4-AP 7 mM",4.70 ± 0.46
same,Vm-Ca2+ delay,"BCL 150, 4-AP 7 mM",−5.24 ± 2.31
same,APD80 (action potential duration),"BCL 200, 4-AP 7 mM",55.28 ± 2.94
same,CVL (longitudinal conduction velocity),"BCL 200, 4-AP 7 mM",0.56 ± 0.09
same,CVT (transverse conduction velocity),"BCL 200, 4-AP 7 mM",0.30 ± 0.05
same,Ca2+ RT (rise time),"BCL 200, 4-AP 7 mM",9.14 ± 1.31
same,Ca t (calcium decay time constant),"BCL 200, 4-AP 7 mM",39.09 ± 5.88
same,CaTD80 (calcium transient duration),"BCL 200, 4-AP 7 mM",106.68 ± 19.92
same,NADH fluorescence intensity (normalized to first recording of the heart),"BCL 200, 4-AP 7 mM",0.99 ± 0.07
same,Vm RT (rise time),"BCL 200, 4-AP 7 mM",4.72 ± 0.28
same,Vm-Ca2+ delay,"BCL 200, 4-AP 7 mM",−8.14 ± 4.48
